Results published in patent US20250235460A1, “COMBINATION THERAPY USING GLUCOSE-DEPENDENT INSULINOTROPIC POLYPEPTIDE RECEPTOR ANTAGONIST COMPOUNDS AND GLP-1 RECEPTOR AGONIST COMPOUNDS” (Pfizer Inc., priority 2024, published 2025).
pEC50: −log10 of the molar value.

Columns and labels:
human GLP-1R [1] = biological target: human GLP-1R (Homo sapiens, UniProt P43220, L260F); assay: CHO GLP-1R Clone C6 cAMP HTRF agonist assay (Assay 2, low receptor density); type: cell-based; conditions: for pEC50: CHO GLP-1R clone C6, cAMP HTRF, geometric mean; for Emax: CHO GLP-1R clone C6, arithmetic mean, relative to saturating GLP-1 (1 μM)
Chain of human GLP-1R (Homo sapiens, UniProt P43220, L260F) (P43220 24-463 L260F): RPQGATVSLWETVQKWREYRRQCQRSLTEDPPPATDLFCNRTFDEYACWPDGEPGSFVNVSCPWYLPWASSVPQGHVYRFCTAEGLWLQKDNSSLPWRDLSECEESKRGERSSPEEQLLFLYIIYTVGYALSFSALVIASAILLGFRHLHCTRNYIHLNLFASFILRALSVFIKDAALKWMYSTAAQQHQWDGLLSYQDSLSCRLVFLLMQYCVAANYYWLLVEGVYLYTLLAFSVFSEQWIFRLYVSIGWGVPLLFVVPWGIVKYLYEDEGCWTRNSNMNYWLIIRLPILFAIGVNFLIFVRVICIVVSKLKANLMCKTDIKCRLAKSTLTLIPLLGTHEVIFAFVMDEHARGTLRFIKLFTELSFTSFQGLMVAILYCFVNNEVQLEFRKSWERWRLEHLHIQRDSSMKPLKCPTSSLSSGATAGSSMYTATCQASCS
Source text: In Table 5 and Table 6, assay data are presented to two (2) significant figures as the geometric mean (EC50s) and arithmetic mean (Emax) based on the number of replicates listed (Number). A blank cell means there was no data for that Example or the Emax was not calculated.

human GLP-1R [2] = biological target: human GLP-1R (Homo sapiens, UniProt P43220, G168S); assay: CHO GLP-1R Clone H6 cAMP HTRF agonist assay (Assay 1, high receptor density); type: cell-based; conditions: for pEC50: CHO GLP-1R clone H6, cAMP HTRF, geometric mean; for Emax: CHO GLP-1R clone H6, arithmetic mean, relative to saturating GLP-1 (1 μM), read-out: Assay 1 Emax (%)
Chain of human GLP-1R (Homo sapiens, UniProt P43220, G168S) (P43220 24-463 G168S): as the sequence (P43220 24-463 L260F) above, with G145S, F237L counted along it
Procedure, shortened: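 Two significant figures are used throughout. Each EC50 is the geometric mean of its replicates, and each Emax is the arithmetic mean.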

| SMILES | pEC50 (human GLP-1R [1]) | Emax (human GLP-1R [1]) | pEC50 (human GLP-1R [2]) | Emax (human GLP-1R [2]) |
| --- | --- | --- | --- | --- |
| Cn1c(CN2CCC(c3cccc(OCc4ccccc4)n3)CC2)nc2ccc(C(=O)O)cc21 [Compound 221B, 2-((4-(6-(Benzyloxy)pyridin-2-yl)piperidin-1-yl)methyl)-1-methyl-1H-benzo[d]imidazole-6-carboxylic acid] | 7.64 | 110% | 8.47 | 86% |
| Cn1c(CN2CCC(c3cccc(OCc4ccc(Cl)cc4)n3)CC2)nc2ccc(C(=O)O)cc21 [Compound 225B, 2-[(4-{6-[(4-chlorobenzyl)oxy]pyridin-2-yl}piperidin-1-yl)methyl]-1-methyl-1H-benzimidazole-6-carboxylic acid] | 6.85 | 82% | 7.92 | 75% |
| Cn1c(CN2CCC(c3cccc(OCc4ccccc4F)n3)CC2)nc2ccc(C(=O)O)cc21 [Compound 226B, 2-[(4-{6-[(2-fluorobenzyl)oxy]pyridin-2-yl}piperidin-1-yl)methyl]-1-methyl-1H-benzimidazole-6-carboxylic acid] | 7.54 | 74% | 8.57 | 73% |
| Cn1c(CN2CCC(c3cccc(OCc4cccc(F)c4F)n3)CC2)nc2ccc(C(=O)O)cc21 [Compound 227B, 2-[(4-{6-[(2,3-difluorobenzyl)oxy]pyridin-2-yl}piperidin-1-yl)methyl]-1-methyl-1H-benzimidazole-6-carboxylic acid] | 7.32 | 79% | 8.40 | 64% |
| Cn1c(CN2CCC(c3cccc(OCc4ccc(OC(F)(F)F)cc4)n3)CC2)nc2ccc(C(=O)O)cc21 [Compound 228B, 1-methyl-2-{[4-(6-{[4-(trifluoromethoxy)benzyl]oxy}pyridin-2-yl)piperidin-1-yl]methyl}-1H-benzimidazole-6-carboxylic acid] | 7.00 | 81% | 8.22 | 73% |
| Cn1c(CN2CCC(c3cccc(OCc4ccccc4OC(F)(F)F)n3)CC2)nc2ccc(C(=O)O)cc21 [Compound 229B, 1-methyl-2-{[4-(6-{[2-(trifluoromethoxy)benzyl]oxy}pyridin-2-yl)piperidin-1-yl]methyl}-1H-benzimidazole-6-carboxylic acid] | 7.72 | 75% | 9.00 | 76% |
| Cn1c(CN2CCC(c3cccc(OCc4cccc(C#N)c4)n3)CC2)nc2ccc(C(=O)O)cc21 [Compound 231B, 2-[(4-{6-[(3-cyanobenzyl)oxy]pyridin-2-yl}piperidin-1-yl)methyl]-1-methyl-1H-benzimidazole-6-carboxylic acid] | 8.36 | 95% | 9.52 | 80% |
| Cn1c(CN2CCC(c3cccc(OCc4ccc(C(F)(F)F)cc4)n3)CC2)nc2ccc(C(=O)O)cc21 [Compound 232B, 1-methyl-2-{[4-(6-{[4-(trifluoromethyl)benzyl]oxy}pyridin-2-yl)piperidin-1-yl]methyl}-1H-benzimidazole-6-carboxylic acid] | 6.85 | 76% | 8.07 | 64% |
| Cn1c(CN2CCC(c3cccc(OCc4cc(F)ccc4F)n3)CC2)nc2ccc(C(=O)O)cc21 [Compound 233B, 2-[(4-{6-[(2,5-difluorobenzyl)oxy]pyridin-2-yl}piperidin-1-yl)methyl]-1-methyl-1H-benzimidazole-6-carboxylic acid] | 8.02 | 84% | 9.25 | 73% |
| CCn1cnnc1Cn1c(CN2CCC(c3cccc(OCc4ccc(Cl)cc4F)n3)CC2)nc2ccc(C(=O)O)cc21 [Compound 237B, 2-[(4-{6-[(4-chloro-2-fluorobenzyl)oxy]pyridin-2-yl}piperidin-1-yl)methyl]-1-[(4-ethyl-4H-1,2,4-triazol-3-yl)methyl]-1H-benzimidazole-6-carboxylic acid] | 7.41 | 88% | 8.49 | 68% |
| CN(C)CCn1c(CN2CCC(c3cccc(OCc4ccc(Cl)cc4F)n3)CC2)nc2ccc(C(=O)O)cc21 [Compound 238B, 2-[(4-{6-[(4-chloro-2-fluorobenzyl)oxy]pyridin-2-yl}piperidin-1-yl)methyl]-1-[2-(dimethylamino)ethyl]-1H-benzimidazole-6-carboxylic acid] | 7.96 | 100% | 9.15 | 81% |
| O=C(O)c1ccc2nc(CN3CCC(c4cccc(OCc5ccc(Cl)cc5F)n4)CC3)n(CCN3CCCC3=O)c2c1 [Compound 239B, 2-[(4-{6-[(4-chloro-2-fluorobenzyl)oxy]pyridin-2-yl}piperidin-1-yl)methyl]-1-[2-(2-oxopyrrolidin-1-yl)ethyl]-1H-benzimidazole-6-carboxylic acid] | 7.62 | 98% | 8.92 | 84% |
| C[C@H]1CN(c2cccc(OCc3ccc(C#N)cc3F)n2)CCN1Cc1nc2ccc(C(=O)O)cc2n1Cc1cocn1 [Compound 241B, 2-{[(2S)-4-{6-[(4-cyano-2-fluorobenzyl)oxy]pyridin-2-yl}-2-methylpiperazin-1-yl]methyl}-1-(1,3-oxazol-4-ylmethyl)-1H-benzimidazole-6-carboxylic acid] | 6.80 | 71% | 8.03 | 69% |
| CN1CC(Cn2c(CN3CCC(c4cccc(OCc5ccc(Cl)cc5F)n4)CC3)nc3ccc(C(=O)O)cc32)C1 [Compound 243B, 2-[(4-{6-[(4-chloro-2-fluorobenzyl)oxy]pyridin-2-yl}piperidin-1-yl)methyl]-1-[(1-methylazetidin-3-yl)methyl]-1H-benzimidazole-6-carboxylic acid] | 7.08 | 83% | 8.33 | 71% |
| Cc1nnc(Cn2c(CN3CCC(c4cccc(OCc5ccc(Cl)cc5F)n4)CC3)nc3ccc(C(=O)O)cc32)n1C [Compound 244B, 2-[(4-{6-[(4-chloro-2-fluorobenzyl)oxy]pyridin-2-yl}piperidin-1-yl)methyl]-1-[(4,5-dimethyl-4H-1,2,4-triazol-3-yl)methyl]-1H-benzimidazole-6-carboxylic acid] | 6.34 | 66% | 7.51 | 81% |
| CCn1cnnc1Cn1c(CN2CCN(c3cccc(OCc4ccc(Cl)cc4F)n3)C[C@@H]2C)nc2ccc(C(=O)O)cc21 [Compound 245B, 2-{[(2S)-4-{6-[(4-chloro-2-fluorobenzyl)oxy]pyridin-2-yl}-2-methylpiperazin-1-yl]methyl}-1-[(4-ethyl-4H-1,2,4-triazol-3-yl)methyl]-1H-benzimidazole-6-carboxylic acid] | 7.46 | 89% | 8.82 | 74% |
| N#Cc1ccc(COc2cccc(C3CCN(Cc4nc5ccc(C(=O)O)nc5n4Cc4cnco4)CC3)n2)c(F)c1 [Compound 248B, 2-[(4-{6-[(4-cyano-2-fluorobenzyl)oxy]pyridin-2-yl}piperidin-1-yl)methyl]-3-(1,3-oxazol-5-ylmethyl)-3H-imidazo[4,5-b]pyridine-5-carboxylic acid] | 7.49 | 79% | 8.70 | 82% |
| C[C@H]1CN(c2cccc(OCc3ccc(C#N)cc3F)n2)CCN1Cc1nc2ccc(C(=O)O)cc2n1Cc1cncn1C [Compound 249B, 2-{[(2S)-4-{6-[(4-cyano-2-fluorobenzyl)oxy]pyridin-2-yl}-2-methylpiperazin-1-yl]methyl}-1-[(1-methyl-1H-imidazol-5-yl)methyl]-1H-benzimidazole-6-carboxylic acid] | 7.46 | 78% | 8.80 | 84% |
| CC1(Cn2c(CN3CCC(c4cccc(OCc5ccc(Cl)cc5F)n4)CC3)nc3ccc(C(=O)O)cc32)COC1 [Compound 251B, 2-[(4-{6-[(4-chloro-2-fluorobenzyl)oxy]pyridin-2-yl}piperidin-1-yl)methyl]-1-[(3-methyloxetan-3-yl)methyl]-1H-benzimidazole-6-carboxylic acid] | 8.17 | 93% | 9.23 | 83% |
| Cc1nnc(CCn2c(CN3CCC(c4cccc(OCc5ccc(Cl)cc5F)n4)CC3)nc3ccc(C(=O)O)cc32)o1 [Compound 253B, 2-[(4-{6-[(4-chloro-2-fluorobenzyl)oxy]pyridin-2-yl}piperidin-1-yl)methyl]-1-[2-(5-methyl-1,3,4-oxadiazol-2-yl)ethyl]-1H-benzimidazole-6-carboxylic acid] | 7.70 | 87% | 8.70 | 84% |
| Cc1nnc(Cn2c(CN3CCC(c4cccc(OCc5ccc(Cl)cc5F)n4)CC3)nc3ccc(C(=O)O)cc32)o1 [Compound 254B, 2-[(4-{6-[(4-chloro-2-fluorobenzyl)oxy]pyridin-2-yl}piperidin-1-yl)methyl]-1-[(5-methyl-1,3,4-oxadiazol-2-yl)methyl]-1H-benzimidazole-6-carboxylic acid] | 7.14 | 87% | 8.30 | 65% |
| Cn1cnc(Cn2c(CN3CCC(c4cccc(OCc5ccc(Cl)cc5F)n4)CC3)nc3ccc(C(=O)O)cc32)c1 [Compound 255B, 2-[(4-{6-[(4-chloro-2-fluorobenzyl)oxy]pyridin-2-yl}piperidin-1-yl)methyl]-1-[(1-methyl-1H-imidazol-4-yl)methyl]-1H-benzimidazole-6-carboxylic acid] | 5.24 | 85% | 6.72 | 62% |
